Measured values taken from patent publication US20250120958A1, “Treatment of GM2 Gangliosidosis” (Azafaros B.V., priority 2022, published 2025).
pIC50: −log10 of the molar value.

What was measured:
[1] = test system: GFAP (Glial fibrillary acidic protein); assay: GFAP immunofluorescence in brain sections; type: in vivo, mouse; conditions: for GFAP staining, treated vs vehicle: midsections
Text: (§1) Brain samples were collected, rinsed with saline and blotted dry. Samples were fixed in 4% PFA for immunohistochemical analyses; frozen and kept for gene expression and molecular biology analyses; and used frozen for LC-MS/MS analysis.
GFAP (Glial fibrillary acidic protein) a class-III intermediate filament protein, is a cell-specific marker that, during the development of the central nervous system, distinguishes astrocytes from other glial cells. Intermediate filaments form networks that provide support and strength to cells. Several molecules of glial fibrillary acidic protein bind together to form the type of intermediate filament found in astroglial cells. Astroglial cells support and nourish cells in the brain and spinal cord. If brain or spinal cord cells are injured through trauma or disease, astroglial cells react by rapidly producing more glial fibrillary acidic protein.

GCS = biological target: T1, GCS (Homo sapiens, UniProt Q16739); assay: In vitro potency on GCS (glucosylceramide synthase); type: biochemical
T1 sequence (Q16739 1-394): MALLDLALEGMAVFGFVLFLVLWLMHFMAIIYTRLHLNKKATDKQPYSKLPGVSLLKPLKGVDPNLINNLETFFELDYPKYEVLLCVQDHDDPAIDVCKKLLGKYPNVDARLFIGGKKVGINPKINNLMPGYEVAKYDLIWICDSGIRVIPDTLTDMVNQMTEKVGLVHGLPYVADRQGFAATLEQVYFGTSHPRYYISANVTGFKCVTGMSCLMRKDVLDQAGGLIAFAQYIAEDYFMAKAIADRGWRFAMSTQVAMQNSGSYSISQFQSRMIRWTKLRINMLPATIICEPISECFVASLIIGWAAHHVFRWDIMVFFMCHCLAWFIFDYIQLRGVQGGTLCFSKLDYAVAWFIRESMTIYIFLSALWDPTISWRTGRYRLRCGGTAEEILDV

[2] = Stability of dosing formulation; type: physicochemical; conditions: 0.01 mg/mL-2 mg/mL in purified water/citric acid/NaOH, storage 15-25° C.
Text: • 1. Introduction and preparation of vehicle control • 1.1. Read the method prior to proceeding with laboratory work • 1.2. Read Study Plan • 1.3. Ensure the work-station is clean and select the correct equipment, clean glassware etc. for the study. • 1.4. Formulate in ascending order of concentration. • 1.5. Start with control group—measure the required volume of purified water and magnetically stir. Whilst magnetically stirring, adjust pH to 3.5-2.5 using 1 M citric acid. Record volumes in raw data. • 1.6. Stir for a minimum of 30 minutes. Record stir times in raw data. • 1.7. Adjust the pH to 4.5-5.5 using 0.1 M NaOH. Record volumes in raw data. • 1.8. Stir for a minimum of 20 minutes using a magnetic stirrer. Record stir times in the raw data. • 1.9. Sample at this point if required. • 2. Test item formulations • 2.1. Weigh the required amount of test item: e.g., For a 0.9 mg/mL target concentration in 600 mL, weigh 540 mg. • 2.2. Add 70% of the final volume of purified water to the test item to obtain a thin suspension (may be difficult to see at these low concentrations): e.g., 420 mL • 2.3. Add not more than 3 molar equivalents of citric acid, and record the pH which should be pH 3.5-2.5, e.g., 3.74 mL of 1 M citric acid solution in water. • Note: The suspension should clear up as an indication for dissolution of the test item. • 2.4. […]

[3] = Brain pharmacokinetics after 16 weeks of once daily administration (LC-MS/MS); type: in vivo, mouse
Description: as §1
Unless otherwise stated, the methodology and sample collection were performed as in Example 2. […] Twenty-four hours after the last dose the animals were euthanized at varying time-points and AZ-3102 was measured by LC-MS/MS. […] However, exposure (AUC0-24) proportionality was well conserved between doses: 6 versus 3 (1.8-fold); 3 and 1.5 (2.0-fold) and 1.5 and 0.5 (2.4-fold). […] The reduced clearance in the brain versus plasma has also been observed in prior studies with rats and dogs (internal data). […] The plasma concentration at all doses was approximately 1 ng/mL after 24 h and in the brain the concentration was greater than 20 ng/g tissue.

Which “GFAP immunofluorescence, Mean” value ([1]; caudal section of the brain, Het (Hexb+/−), Female) does the source give for OC[C@H]1[C@@H](O)[C@H](O)[C@@H](O)CN1CCCCCOCc1ccc(-c2ccccc2)c(F)c1 [AZ-3102] here?
Its value is 508.99.

What about the “GFAP immunofluorescence, Mean” value ([1]; caudal section of the brain, Het (Hexb+/−), Male) of the same molecule?
The value was 425.10.

What about the “GFAP immunofluorescence, Mean” value ([1]; caudal section of the brain, KO (Hexb−/−), Female) of the same molecule?
Its value is 1656.84.

What about the “GFAP immunofluorescence, Mean” value ([1]; caudal section of the brain, KO (Hexb−/−), Male) of the same molecule?
Its value is 1762.82.

And the “GFAP immunofluorescence, Mean” value ([1]; midsection of the brain, Het (Hexb+/−), Female)?
The value was 298.81.

What about the “GFAP immunofluorescence, Mean” value ([1]; midsection of the brain, Het (Hexb+/−), Male) of the same molecule?
The value was 395.99.

What about the “GFAP immunofluorescence, Mean” value ([1]; midsection of the brain, KO (Hexb−/−), Female) of the same molecule?
Its value is 747.75.

And the “GFAP immunofluorescence, Mean” value ([1]; midsection of the brain, KO (Hexb−/−), Male)?
The value was 866.38.

What about the “GFAP staining, treated vs vehicle” value ([1]; Hexb−/− females) of the same molecule?
The value was “statistical decrease”.

What about the “GFAP staining, treated vs vehicle” value ([1]; Hexb−/− males) of the same molecule?
Its value is “trend to having a decrease”.

And the “inhibitory activity on GCS” value (GCS)?
Its value is “low nM”.

What about the pIC50 (GCS; in vitro potency) of the same molecule?
The pIC50 was 8.60.

And the Stability of formulation [2]?
Its Stability of formulation is 8 days.

What about the “concentration profile in brain” value ([3]; 24 h period, most dose groups) of the same molecule?
Its value is “sustained with very little decrease”.

And the concentration at 24 h ([3]; Hexb (−/−) and Hexb (+/−), mouse, brain, oral, all doses)?
The concentration at 24 h was greater than 20 ng/g.
